Where two headings read alike, the source gives them in different places.
Key:
[1] = molecular target: T1, AEA-DA lipid probe targets in Neuro2a cells (Mus musculus, UniProt Q920A5)
T1 sequence (Q920A5 29-452): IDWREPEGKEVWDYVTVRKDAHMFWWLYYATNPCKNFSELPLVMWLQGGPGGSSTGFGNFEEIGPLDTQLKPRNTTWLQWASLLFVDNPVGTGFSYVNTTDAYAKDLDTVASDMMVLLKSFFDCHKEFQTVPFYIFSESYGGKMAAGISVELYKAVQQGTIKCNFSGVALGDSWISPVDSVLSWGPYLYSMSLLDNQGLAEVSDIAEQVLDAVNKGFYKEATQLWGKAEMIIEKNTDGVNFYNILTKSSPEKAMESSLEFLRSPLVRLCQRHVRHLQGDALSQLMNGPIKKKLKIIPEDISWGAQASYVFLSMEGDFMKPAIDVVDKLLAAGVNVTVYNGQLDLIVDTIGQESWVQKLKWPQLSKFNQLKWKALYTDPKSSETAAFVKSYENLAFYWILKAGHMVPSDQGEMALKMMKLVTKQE

[2] = molecular target: AEA-DA lipid probe targets in Neuro2a cells (Mus musculus, UniProt Q8VDL4)
AEA-DA lipid probe targets in Neuro2a cells (Mus musculus, UniProt Q8VDL4), sequence (Q8VDL4 23-496): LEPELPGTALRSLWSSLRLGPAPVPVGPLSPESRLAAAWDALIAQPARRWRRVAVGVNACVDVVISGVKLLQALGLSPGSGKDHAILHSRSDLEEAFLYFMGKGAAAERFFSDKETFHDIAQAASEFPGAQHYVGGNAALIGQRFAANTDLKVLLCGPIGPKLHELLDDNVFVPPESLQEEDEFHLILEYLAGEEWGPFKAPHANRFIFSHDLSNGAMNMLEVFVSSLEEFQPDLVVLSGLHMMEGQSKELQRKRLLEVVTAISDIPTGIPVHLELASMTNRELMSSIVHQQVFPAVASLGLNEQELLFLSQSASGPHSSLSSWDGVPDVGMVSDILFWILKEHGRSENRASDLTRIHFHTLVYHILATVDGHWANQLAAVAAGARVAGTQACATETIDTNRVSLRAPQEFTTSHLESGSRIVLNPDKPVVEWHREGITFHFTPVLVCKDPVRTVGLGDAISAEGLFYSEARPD

[3] = molecular target: AEA-DA lipid probe targets in Neuro2a cells (Mus musculus, UniProt P52019); settings: for SILAC ratio, SQLE (Q14534): Neuro2a cells, AEA-DA probe
AEA-DA lipid probe targets in Neuro2a cells (Mus musculus, UniProt P52019), sequence (P52019 whole entry): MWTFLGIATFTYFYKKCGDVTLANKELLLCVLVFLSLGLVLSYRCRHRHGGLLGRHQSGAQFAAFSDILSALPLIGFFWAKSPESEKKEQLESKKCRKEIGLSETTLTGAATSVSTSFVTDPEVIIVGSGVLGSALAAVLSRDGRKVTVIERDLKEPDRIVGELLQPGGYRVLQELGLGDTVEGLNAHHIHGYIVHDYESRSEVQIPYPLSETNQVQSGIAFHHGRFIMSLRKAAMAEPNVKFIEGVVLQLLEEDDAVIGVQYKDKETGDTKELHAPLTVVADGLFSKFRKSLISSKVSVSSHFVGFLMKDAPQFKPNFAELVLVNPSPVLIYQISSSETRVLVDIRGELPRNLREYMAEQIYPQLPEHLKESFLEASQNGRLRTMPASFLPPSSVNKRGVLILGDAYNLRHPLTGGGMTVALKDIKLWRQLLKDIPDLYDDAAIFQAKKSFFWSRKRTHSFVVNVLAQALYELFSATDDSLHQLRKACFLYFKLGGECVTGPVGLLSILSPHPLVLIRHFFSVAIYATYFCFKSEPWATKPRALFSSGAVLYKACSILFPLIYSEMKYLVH

[4] = molecular target: T2, AEA-DA lipid probe targets in Neuro2a cells (Mus musculus, UniProt Q8BHN3)
T2 sequence (Q8BHN3 33-944): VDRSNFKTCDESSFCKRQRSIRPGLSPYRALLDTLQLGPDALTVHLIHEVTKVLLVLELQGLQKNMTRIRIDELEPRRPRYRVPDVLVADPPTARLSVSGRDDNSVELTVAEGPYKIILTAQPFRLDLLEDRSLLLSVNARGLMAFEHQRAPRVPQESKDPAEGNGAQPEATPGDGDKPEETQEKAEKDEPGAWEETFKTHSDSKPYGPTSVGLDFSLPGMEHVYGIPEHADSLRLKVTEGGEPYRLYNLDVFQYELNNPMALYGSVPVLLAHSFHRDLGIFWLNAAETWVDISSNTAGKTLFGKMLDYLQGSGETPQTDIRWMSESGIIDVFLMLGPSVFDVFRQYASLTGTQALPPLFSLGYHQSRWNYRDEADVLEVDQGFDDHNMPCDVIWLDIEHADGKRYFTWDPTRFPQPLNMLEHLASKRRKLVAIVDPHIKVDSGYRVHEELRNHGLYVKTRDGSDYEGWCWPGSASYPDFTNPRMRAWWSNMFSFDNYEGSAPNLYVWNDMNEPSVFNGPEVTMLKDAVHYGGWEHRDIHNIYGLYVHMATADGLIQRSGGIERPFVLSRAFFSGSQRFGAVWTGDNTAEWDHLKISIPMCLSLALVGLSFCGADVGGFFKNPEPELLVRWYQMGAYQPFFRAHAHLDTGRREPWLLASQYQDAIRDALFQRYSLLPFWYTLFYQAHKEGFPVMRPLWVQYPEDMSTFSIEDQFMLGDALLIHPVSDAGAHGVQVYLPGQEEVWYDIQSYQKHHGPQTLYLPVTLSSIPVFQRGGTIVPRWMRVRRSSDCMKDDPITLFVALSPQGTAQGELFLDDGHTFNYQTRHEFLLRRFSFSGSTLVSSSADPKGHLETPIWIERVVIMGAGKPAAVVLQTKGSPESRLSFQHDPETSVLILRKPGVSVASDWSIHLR

[5] = molecular target: T3, AEA-DA lipid probe targets in Neuro2a cells (Mus musculus, UniProt G5E829)
T3 sequence (G5E829 1-1220): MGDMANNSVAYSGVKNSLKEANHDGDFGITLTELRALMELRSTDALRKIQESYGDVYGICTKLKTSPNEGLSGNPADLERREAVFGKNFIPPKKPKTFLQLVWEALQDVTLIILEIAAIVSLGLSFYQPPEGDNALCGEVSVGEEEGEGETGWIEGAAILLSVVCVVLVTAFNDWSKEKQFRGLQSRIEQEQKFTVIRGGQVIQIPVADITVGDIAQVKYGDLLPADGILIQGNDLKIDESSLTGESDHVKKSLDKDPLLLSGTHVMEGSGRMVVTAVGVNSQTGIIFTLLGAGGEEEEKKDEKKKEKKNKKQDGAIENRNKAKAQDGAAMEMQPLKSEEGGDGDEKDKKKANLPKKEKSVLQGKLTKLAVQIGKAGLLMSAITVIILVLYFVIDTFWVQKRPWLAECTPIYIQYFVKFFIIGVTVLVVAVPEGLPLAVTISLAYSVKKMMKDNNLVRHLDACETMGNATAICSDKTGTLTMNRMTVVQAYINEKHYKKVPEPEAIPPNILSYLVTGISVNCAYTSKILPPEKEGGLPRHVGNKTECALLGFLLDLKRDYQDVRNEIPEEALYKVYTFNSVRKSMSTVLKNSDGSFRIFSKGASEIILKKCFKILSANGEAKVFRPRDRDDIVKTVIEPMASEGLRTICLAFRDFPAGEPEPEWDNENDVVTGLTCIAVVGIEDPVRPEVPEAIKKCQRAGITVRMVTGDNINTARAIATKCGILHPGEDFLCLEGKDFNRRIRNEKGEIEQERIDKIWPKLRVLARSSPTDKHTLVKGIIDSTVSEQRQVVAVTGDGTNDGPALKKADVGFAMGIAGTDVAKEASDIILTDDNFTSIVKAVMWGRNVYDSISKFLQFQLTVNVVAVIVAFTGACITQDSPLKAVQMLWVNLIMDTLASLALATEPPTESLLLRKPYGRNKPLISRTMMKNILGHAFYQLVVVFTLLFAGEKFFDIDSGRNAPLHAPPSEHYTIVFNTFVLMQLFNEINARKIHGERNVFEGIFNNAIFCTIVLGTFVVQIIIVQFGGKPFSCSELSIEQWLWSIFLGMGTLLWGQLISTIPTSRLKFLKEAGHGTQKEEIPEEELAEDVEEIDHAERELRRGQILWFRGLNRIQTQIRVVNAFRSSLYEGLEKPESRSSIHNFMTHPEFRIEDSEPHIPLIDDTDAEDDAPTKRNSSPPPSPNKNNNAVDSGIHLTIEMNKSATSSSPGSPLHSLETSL

[6] = molecular target: AEA-DA lipid probe targets in Neuro2a cells (Mus musculus, UniProt P06795)
AEA-DA lipid probe targets in Neuro2a cells (Mus musculus, UniProt P06795), sequence (P06795 whole entry): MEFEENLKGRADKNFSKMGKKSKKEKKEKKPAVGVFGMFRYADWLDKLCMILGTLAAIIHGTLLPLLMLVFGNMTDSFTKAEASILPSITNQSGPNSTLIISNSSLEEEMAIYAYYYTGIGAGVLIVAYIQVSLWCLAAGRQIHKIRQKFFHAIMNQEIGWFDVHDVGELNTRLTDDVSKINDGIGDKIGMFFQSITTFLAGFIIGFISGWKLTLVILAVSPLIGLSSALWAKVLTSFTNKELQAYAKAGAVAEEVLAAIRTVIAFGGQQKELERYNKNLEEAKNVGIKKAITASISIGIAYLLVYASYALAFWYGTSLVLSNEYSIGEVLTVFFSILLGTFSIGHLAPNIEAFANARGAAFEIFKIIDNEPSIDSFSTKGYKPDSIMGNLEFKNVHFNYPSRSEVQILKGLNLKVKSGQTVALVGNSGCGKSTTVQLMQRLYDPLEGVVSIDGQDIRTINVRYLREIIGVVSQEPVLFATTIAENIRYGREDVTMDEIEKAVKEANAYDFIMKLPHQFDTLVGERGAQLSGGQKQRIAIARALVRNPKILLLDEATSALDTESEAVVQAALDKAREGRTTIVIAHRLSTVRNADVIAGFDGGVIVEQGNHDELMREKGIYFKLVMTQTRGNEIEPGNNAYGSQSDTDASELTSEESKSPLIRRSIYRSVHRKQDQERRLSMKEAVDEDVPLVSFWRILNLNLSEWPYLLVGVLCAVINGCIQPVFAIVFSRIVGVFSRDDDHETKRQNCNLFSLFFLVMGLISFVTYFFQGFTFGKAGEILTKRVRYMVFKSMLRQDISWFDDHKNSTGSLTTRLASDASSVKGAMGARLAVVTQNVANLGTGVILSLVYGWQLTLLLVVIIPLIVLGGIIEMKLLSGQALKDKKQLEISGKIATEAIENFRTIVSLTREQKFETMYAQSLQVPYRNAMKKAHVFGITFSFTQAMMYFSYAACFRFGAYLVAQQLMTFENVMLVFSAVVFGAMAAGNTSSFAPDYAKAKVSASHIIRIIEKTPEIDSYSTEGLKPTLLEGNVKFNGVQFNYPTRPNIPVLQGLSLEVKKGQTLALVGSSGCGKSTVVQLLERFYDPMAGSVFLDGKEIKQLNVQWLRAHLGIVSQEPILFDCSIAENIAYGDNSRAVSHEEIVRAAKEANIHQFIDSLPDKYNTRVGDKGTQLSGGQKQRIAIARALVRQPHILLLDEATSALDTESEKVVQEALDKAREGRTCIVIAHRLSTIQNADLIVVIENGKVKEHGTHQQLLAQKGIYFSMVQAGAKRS

Structure (SMILES)	SILAC ratio Scpep1 ([1]; competitor 25 μM)	SILAC ratio, Adpgk ([2]; competitor 25 μM)	SILAC ratio, SQLE (Q14534) ([3]; competitor 25 μM)	SILAC ratio Sqle ([3]; competitor 25 μM)	SILAC ratio Ganab ([4]; competitor 25 μM)	SILAC ratio Atp2b1 ([5]; competitor 25 μM)	SILAC ratio, Abcb1b ([6]; competitor 25 μM)	further results
CCCCC/C=C\C/C=C\C/C=C\C/C=C\CCCC(=O)NCCO [AEA, anandamide, reference compound]								SILAC ratio Scpep1 ([1]; competitor 200 μM): 1.0; SILAC ratio, Adpgk ([2]; competitor 200 μM): 1.8; SILAC ratio, SQLE (Q14534) ([3]; competitor 200 μM): 1.9; SILAC ratio Sqle ([3]; competitor 200 μM): 1.9; SILAC ratio Ganab ([4]; competitor 200 μM): 1.1; SILAC ratio Atp2b1 ([5]; competitor 200 μM): 1.6; SILAC ratio, Abcb1b ([6]; competitor 200 μM): 2.3
O=C(/C=C/c1cccnc1)NCCCCC1CCN(C(=O)c2ccccc2)CC1 [FK-866, reference compound]	1.2	1.2	1.1	1.1	1.1	1.2	5.4	
CN1CCN(C(=O)c2c(-c3ccccc3)c3cc([N+](=O)[O-])ccc3n2C)CC1 [KML110, (1-Methyl-5-nitro-3-phenyl-1H-indol-2-yl)(4-methylpiperazin-1-yl)methanone]	1.6	1.5		1.3	1.3	1.8	5.7	
CN1CCN(C(=O)c2[nH]c3ccc([N+](=O)[O-])cc3c2-c2ccccc2)CC1 [MJN228, (4-Methylpiperazin-1-yl)(5-nitro-3-phenyl-1H-indol-2-yl)methanone]	1.4	1.7	1.5	1.5	1.2	1.4	4.0	SILAC ratio Scpep1 ([1]; competitor 10 μM): 1.2; SILAC ratio Scpep1 ([1]; competitor 50 μM): 1.5; SILAC ratio Scpep1 ([1]; competitor 100 μM): 1.9; SILAC ratio, Adpgk ([2]; competitor 10 μM): 1.4; SILAC ratio, Adpgk ([2]; competitor 50 μM): 1.5; SILAC ratio, Adpgk ([2]; competitor 100 μM): 2.0; SILAC ratio Sqle ([3]; competitor 10 μM): 1.3; SILAC ratio Sqle ([3]; competitor 100 μM): 2.1; SILAC ratio Ganab ([4]; competitor 10 μM): 1.2; SILAC ratio Ganab ([4]; competitor 50 μM): 1.5; SILAC ratio Ganab ([4]; competitor 100 μM): 1.6; SILAC ratio Atp2b1 ([5]; competitor 10 μM): 1.1; SILAC ratio Atp2b1 ([5]; competitor 50 μM): 1.4; SILAC ratio Atp2b1 ([5]; competitor 100 μM): 1.7; SILAC ratio, Abcb1b ([6]; competitor 10 μM): 2.6; SILAC ratio, Abcb1b ([6]; competitor 50 μM): 9.4; SILAC ratio, Abcb1b ([6]; competitor 100 μM): 20.0
C=CCN(C)CCCCCCOc1ccc(C(=O)c2ccc(Br)cc2)c(F)c1 [Ro 48-8071, reference compound]	0.4	1.2	1.0	1.0	0.9	1.1	1.7	
